# Measured values published in article PMC12123458, “Unraveling Small Molecule-Mediated Sirtuin 3 Activation at a Distinct Binding Site for Cardioprotective Therapies” (ACS Central Science, 2025).
# Columns and labels:
# SIRT3 L298G mutant = target: T1, SIRT3 L298G mutant (Homo sapiens, UniProt Q9NTG7, L298G); experiment: BLI binding of SKLB-11A to mutant SIRT3 (L298G); settings: read-out: dissociation constant, L298G mutant SIRT3
# T1 construct: made in house
# T1 sequence (Q9NTG7 1-399 L298G): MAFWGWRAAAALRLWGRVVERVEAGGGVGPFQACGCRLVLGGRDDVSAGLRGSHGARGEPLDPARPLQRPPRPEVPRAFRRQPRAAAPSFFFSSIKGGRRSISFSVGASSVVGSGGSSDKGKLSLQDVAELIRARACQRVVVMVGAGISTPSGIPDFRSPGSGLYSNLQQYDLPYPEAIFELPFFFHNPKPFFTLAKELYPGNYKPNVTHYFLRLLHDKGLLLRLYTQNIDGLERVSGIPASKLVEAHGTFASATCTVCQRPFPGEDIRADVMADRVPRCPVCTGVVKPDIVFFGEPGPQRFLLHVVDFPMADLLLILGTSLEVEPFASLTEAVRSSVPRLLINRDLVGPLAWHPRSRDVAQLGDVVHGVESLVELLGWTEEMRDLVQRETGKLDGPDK
# Procedure: SIRT3 protein at a concentration of 10 mg/mL was incubated with SKLB-11A (200 mM) in a mole ratio of 1:5 on ice for 1–3 h. The mixture was then centrifuged at 4 °C for 10 min, and the supernatant was used for crystallization. The precipitant solution consisted of 0.2 M Li2SO4, 1.0 M (NH4)2SO4, and 0.1 M Tris, at pH 7.5. Crystals emerged after approximately 3 days at 16 °C on a sitting-drop plate. The crystals were subsequently transferred to a cryoprotectant solution containing 20% glycerol and were flash-cooled in a nitrogen gas stream at 100 K for synchrotron radiation X-ray diffraction data collection. Site-directed mutagenesis. L298G Primer forward: 5′-[…]-GAACCGggc[…][…]-3′; reverse: 5′-gccCGGTT[…]-AAAACGA-3′; Site-directed mutagenesis was conducted using 2 x Phanta Flash Master Mix (Vazyme, P510). The mutated plasmid was sequenced by Sangon Biotech (Shanghai, China).
# Binding kinetics of SIRT3 with various compounds were quantified using SSA biosensors on an Octet Red96 system (ForteBio). The assays occurred in 96-well plates, recording wavelength shifts in real-time. Ambient temperature was maintained at 25 °C, with plate agitation at 1000 rpm, and a reaction volume of 200 μL per well. SIRT3 protein and test compounds were prepared in phosphate-buffered saline (PBS, pH 7.4). […]
# SIRT1 = target: T2, SIRT1 (Rattus norvegicus, UniProt A0A0G2JZ79); experiment: CETSA of SIRT1 in H9c2 cells; format: cell-based
# T2 construct: endogenous in cells; host or cells: H9c2
# T2 sequence (A0A0G2JZ79 1-741): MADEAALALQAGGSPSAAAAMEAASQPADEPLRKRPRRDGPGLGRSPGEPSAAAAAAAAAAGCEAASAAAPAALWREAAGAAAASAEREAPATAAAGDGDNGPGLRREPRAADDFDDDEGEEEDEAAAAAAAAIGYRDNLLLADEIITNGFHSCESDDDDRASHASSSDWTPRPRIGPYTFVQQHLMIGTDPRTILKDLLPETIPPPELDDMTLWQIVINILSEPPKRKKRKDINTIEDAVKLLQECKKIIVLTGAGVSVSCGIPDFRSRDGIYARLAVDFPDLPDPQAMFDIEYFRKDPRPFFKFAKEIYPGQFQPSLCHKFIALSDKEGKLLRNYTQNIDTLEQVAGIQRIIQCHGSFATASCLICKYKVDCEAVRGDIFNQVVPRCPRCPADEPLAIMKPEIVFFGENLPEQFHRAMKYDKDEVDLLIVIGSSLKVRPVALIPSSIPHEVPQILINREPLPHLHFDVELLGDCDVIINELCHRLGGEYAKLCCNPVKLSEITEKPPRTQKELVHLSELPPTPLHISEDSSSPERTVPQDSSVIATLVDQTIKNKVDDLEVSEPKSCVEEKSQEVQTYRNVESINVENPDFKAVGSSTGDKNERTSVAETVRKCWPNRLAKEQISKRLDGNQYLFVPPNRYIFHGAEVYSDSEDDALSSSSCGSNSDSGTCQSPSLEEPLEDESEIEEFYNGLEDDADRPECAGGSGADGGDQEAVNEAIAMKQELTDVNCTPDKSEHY
# SIRT2 = target: T3, SIRT2 (Rattus norvegicus, UniProt Q5RJQ4); experiment: CETSA of SIRT2 in H9c2 cells; format: cell-based
# T3 construct: endogenous in cells; host or cells: H9c2
# T3 sequence (Q5RJQ4 1-350): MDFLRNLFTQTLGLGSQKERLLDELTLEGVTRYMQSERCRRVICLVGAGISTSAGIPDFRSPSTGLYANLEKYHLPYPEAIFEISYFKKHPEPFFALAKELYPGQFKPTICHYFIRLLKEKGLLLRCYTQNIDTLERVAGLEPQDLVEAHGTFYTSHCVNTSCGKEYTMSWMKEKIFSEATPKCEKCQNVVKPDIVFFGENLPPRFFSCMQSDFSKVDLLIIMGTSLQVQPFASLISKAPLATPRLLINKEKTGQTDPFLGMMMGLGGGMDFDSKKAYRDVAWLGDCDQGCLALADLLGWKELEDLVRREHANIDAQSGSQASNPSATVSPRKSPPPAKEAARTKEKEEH
smiles,measurement,setting,value
"COC(=O)c1c(N)n(Cc2ccc(F)cc2)c2nc3ccccc3nc12 [SKLB-11A, Methyl 2-amino-1-(4-fluorobenzyl)-1H-pyrrolo[2,3-b]quinoxaline-3-carboxylate]",Kd,SIRT3 L298G mutant,167 µM
same,thermal stability of SIRT1 (CETSA),SIRT1,little effect on the thermal stability
same,thermal stability of SIRT2 (CETSA),SIRT2,little effect on the thermal stability
